Source: US11986522B2, “Immunotherapeutic composition and uses thereof” (ARAVAX PTY LTD, priority 2013, dated 2024)
“Also recorded” adds a separate entry of the source. No end group written: not given here.

B1: Ara h 2: major peanut allergen, glycoprotein of the conglutin seed storage family (protein, listed as Arachis hypogaea)
chain: LTILVALALFLLAAHASARQQWELQGDRRCQSQLERANLRPCEQHLMQKIQRDEDSYERDPYSPSQDPYSPSPYDRRGAGSSQHQERCCNELNEFENNQRCMCEALQQIMENQSDRLQGRQQEQQFKRELRNLPQQCGLRAPQRCDLDVESGGRDRY

Experiments:
HLA-DR, HLA-DQ, HLA-DP = test: HLA class II blocking assays (anti-HLA mAb, TCL proliferation); type: cell-based, human; conditions: for antibody that blocked T cell recognition of the epitope: Ara h 2 epitopes
Experimental: Materials and Methods Subjects: Peanut-allergic adult subjects were recruited from The Alfred Allergy Clinic, Melbourne, Australia. […] Some subjects were genotyped (HLA-DRB1, -DQB1 and -DPB1, exon 2) by the Victorian Transplantation and Immunogenetics Service. The study was approved by The Alfred and Monash University Ethics Committees and informed written consent obtained from each subject. Antigens: Crude peanut extract (CPE) was prepared from commercial unsalted, dry-roasted peanuts as described elsewhere, (de Leon et al. Clin Exp Allergy. 2003; 33(9):1273-80) dialyzed against phosphate-buffered saline (PBS) and filter-sterilized (0.2 μm). Natural Ara h 1 and Ara h 2 were enriched from CPE based on published methodology. (de Jong E C et al. Clin Exp Allergy. 1998; 28(6):743-51) Briefly, CPE was buffer exchanged into 20 mM TRIS-bis-propane (TBP), pH 7.2, using Vivaspin columns (Sartorius Stedim Biotech S.A., Aubagne, France) and applied onto a 5 mL Mono-Q 10/10 column (Pharmacia FPLC System, St Albans, UK) equilibrated with TBP. After washing with TBP, a linear gradient of 30 mL 0-1 M NaCl/TBP was applied to elute bound proteins (1 mL/min). Fractions, 0.5 mL, were analyzed by SDS-PAGE and those containing Ara h 1 or Ara h 2 with minimal other proteins pooled and dialyzed against PBS. Endotoxin contents were 1.7, 4.0 and 78.0 EU/mg for CPE, Ara h 1 and Ara h 2 respectively (Endpoint Chromogenic LAL assay, Lonza, Walkersville, USA). Peptides (Mimotopes, Victoria, Australia and GenScript USA Inc, New Jersey, USA) were reconstituted at 1-4 mg/ml in 10% dimethyl sulfoxide/PBS (20-mers and truncated peptide sets) or PBS, 1-2% acetic acid or 0.1M ammonium bicarbonate buffers as specified (custom-synthesized core epitope peptides). All antigens were confirmed to be neither mitogenic nor toxic as described (Eusebius N P et al., Int Arch Allergy Immunol. 2002; 127(3):234-44). Generation of Ara h 1 and Ara h 2-specific CD4+ T-cell lines (TCL): Ara h 1 or Ara h 2-specific oligoclonal TCL were generated from peripheral blood mononuclear cells (PBMC) of peanut-allergic subjects using 5,6-carboxyfluorescein diacetate succinimidylester (CFSE)-based methodology. (Mannering S I et al., J Immunol Methods. 2005; 298(1-2):83-92; Prickett S R, et al., J Allergy Clin Immunol. 2011; 127(3):608-15 el-5). Briefly, culturing was performed in RPMI-1640 containing 2 mM L-glutamine, 100 IU/mL penicillin-streptomycin and 5% human AB serum (Sigma-Aldrich, St Louis, USA) (cRPMI). PBMC were labelled with 0.1 μM CFSE (Molecular Probes, Eugene, USA) and cultured (2.5×10^6/mL) with cRPMI alone, CPE (100 μg/mL), Ara h 1 or Ara h 2 (10 μg/mL), Ara h 1 or Ara h 2 20-mer-peptide pools (10 μg/mL/peptide) or as a control, tetanus toxoid (TT; 10 LfU/mL; Statens Serum Institute, Copenhagen, Denmark) for 7 days at 37° C. After staining with CD4-PE and 7AAD (BD Pharmingen, San Diego, USA), CD4+CFSEdim7AAD-cells were sorted (10 cells/well) into 96-U-well plates containing irradiated allogeneic feeder-cells, anti-CD3 (OKT-3), rIL-2 (Cetus, Emeryville, USA) and Fungizone (Invitrogen, Carlsbad, USA) as described. Cells were fed with rIL-2 as required and after 10-14 days, transferred to 48-well plates and tested for proliferation to Ara h 1 or Ara h 2 (10 μg/mL). Ara h 1 or Ara h 2-positive TCL were expanded with anti-CD3 and rIL-2 in T25 culture flasks (BD, Franklin Lakes, USA) for 10-12 days then tested for specificity (proliferation) to overlapping 20-mer peptides spanning the respective sequence (10 μg/mL). Core epitope sequences were mapped within selected 20-mers using peptide sets truncated from the N- or C-terminus of the 20-mer as described (Prickett S R, et alc. J Allergy Clin Immunol. 2011; 127(3):608-15 el-5). T-cell assays:All culturing was performed in RPMI-1640 containing 2 mM L-glutamine, 100 IU/mL penicillin-streptomycin and 5% heat-inactivated human AB serum (Sigma-Aldrich, St Louis, USA) (cRPMI). […]

[1] = tested on: HLA-DRB1, -DQB1 and -DPB1; test: HLA-genotyping of subjects whose TCL recognise the epitopes; set-up: species or system human; conditions: for HLA allele presenting the epitope / present in all recognising subjects: HLA-typed subjects; for HLA-binding degeneracy (presented by): no shared allele between responding subjects
[2] = tested on: PBMC CD4+ T cells of peanut-allergic subjects; test: 7-day CFSE assay of peptide-induced CD4+ T-cell proliferation/activation within whole PBMC; type: cell-based, human; conditions: screen of 25 new subjects
[3] = Peptide solubility in buffers; type: physicochemical
specific IgE = conditions: cited from earlier work
[4] = Table 4, dominant core T cell epitopes

Row | Molecule | HLA-restriction (HLA-DR, HLA-DQ, HLA-DP; [4]) | HLA-restriction (HLA-DR, HLA-DQ, HLA-DP; Table 7, 10 candidate peptides) | other results
1 | ALMLPHFNSKAMVIVVV [50 core] | HLA-DR | HLA-DR | 
2 | ANLRPCEQHLM [4/5 core] | HLA-DR; also recorded: HLA-DQ |  | HLA-DR molecules presenting the epitope [1]: at least 2; HLA allele presenting the epitope / present in all recognising subjects [1]: HLA-DQB1*06:09; HLA-binding degeneracy (presented by) [1]: multiple HLA-DRB1 molecules; antibody that blocked T cell recognition of the epitope (HLA-DR, HLA-DQ, HLA-DP): anti-HLA-DR
3 | ANLRPSEQHLM [Peptide 21] |  |  | T cell responses compared with longer version containing an additional epitope [2]: Induced equivalent T cell
4 | EFENNQRCMCEALQ [10/11 core] | HLA-DQ |  | HLA allele presenting the epitope / present in all recognising subjects [1]: DRB1*15:01; HLA-binding degeneracy (presented by) [1]: multiple HLA-DQB1 molecules
5 | EFENNQRSMSEALQ [Peptide 23] |  |  | T cell responses compared with longer version containing an additional epitope [2]: Induced equivalent T cell
6 | ELNEFENNQRCM [10 core] | HLA-DR |  | 
7 | ELNEFENNQRSMSEALQ [10 + 10/11 core] |  | HLA-DR; also recorded: or -DQ | 
8 | EVKPDKKNPQLQ (listed as Arachis hypogaea) [Peptide 15] | HLA-DR |  | T cell responses compared with longer version containing an additional epitope [2]: Induced equivalent T cell
9 | FQNLQNHRIV (listed as Arachis hypogaea) [23 core] | HLA-DR |  | 
10 | FQNLQNHRIVQIEAKPNTLV (listed as Arachis hypogaea) [Peptide 1] |  | HLA-DR | 
11 | GDVFIMPAAHPVAINASS (listed as Arachis hypogaea) [57 core] | HLA-DR; also recorded: HLA-DQ | HLA-DR; also recorded: HLA-DQ | 
12 | GDVFIMPAAHPVAINASSE [Peptide 7, GDVFIMPAAHPVAINASSE] |  |  | solubility of the version without the added C-terminal ‘E’ [3]: insoluble except in toxic buffers; solubility in PBS, 0.1M NH4HCO3, or 1-2% acetic acid ([3]; redesigned new version for peptide 7): soluble; peptide 7 in Table 7)
13 | KAMVIVVVNKG (KAMVIVVVNKGTGNLELVAVD; listed as Arachis hypogaea) [50/51 core] | HLA-DR |  | 
14 | KAMVIVVVNKGTGNLELVAV [51 ‘core’] | HLA-DR | HLA-DR | 
15 | NNFGKLFEVKPDKKNPQ [46 core] | HLA-DR |  | 
16 | NNFGKLFEVKPDKKNPQLQ (listed as Arachis hypogaea) [46 + 47 core] |  | HLA-DR | 
17 | RELRNLPQQCGLRA [15 core] |  |  | HLA-binding degeneracy (presented by) [1]: multiple HLA-DRB1 molecules; antibody that blocked T cell recognition of the epitope (HLA-DR, HLA-DQ, HLA-DP): anti-HLA-DR
18 | RIVQIEAKPNTLV (listed as Arachis hypogaea) [24 core] | HLA-DR |  | 
19 | SQLERANLRPCEQ [4 core] | HLA-DP |  | HLA allele presenting the epitope / present in all recognising subjects [1]: DPB1*04:01; antibody that blocked T cell recognition of the epitope (HLA-DR, HLA-DQ, HLA-DP): anti-HLA-DP
20 | VEIKEGALMLPHFNSKA (listed as Arachis hypogaea) [Peptide 4] | HLA-DQ | HLA-DQ | 
21 | WSTRSSENNEGVIVKVSKE [40 core] | HLA-DQ | HLA-DQ | 
22 | B1 |  |  | sera reactive with Ara h 2 (specific IgE; Burks et al, 1992): 6 out of 6; subjects with specific IgE to purified natural Ara h 2 (specific IgE; de Jong's group): approximately 78%; subjects possessing specific IgE to Ara h 2 (specific IgE; western blotting of crude peanut extract, Clarke): 71%; subjects possessing IgE towards recombinant form (specific IgE; western blotting, Kleber-Janke et al.): 85%
